What all share (format): cell-based, guinea pig (Hartley strain)
The subject of test [1] is histamine release from lung fragments. The test is described as follows: Inhibition of histamine release from sensitized guinea pig lung fragments. The settings on record: Cavia porcellus, read-out: Inhibition ratio (%) Histamine; for inhibition at 3 µM: Table 2, dose 3 μM; for inhibition at 30 µM: Table 2, dose 30 μM. The procedure: Inhibitory activities on the release of SRS-A and histamine of the present compounds were determined.
A male guinea pig (Hartley strain) (body weight: about 300 g) was sensitized by a method according to P. Anderson: "Int. Archs. Allergey appln. Immunol., Vol. 64, pages 249-258 (1981). Thus, 30 mg/kg of cyclophosphamide was intraperitoneally administered to the guinea pig, and 2 days after 1 microgram of ovalbumin (manufactured by Sigma Chemical Co., St. Louis, Mo. U. S. A.) together with 10 mg of aluminium hydroxide gel were intraperitoneally administered so as to have the animal sesitized.
50 Days after the sesitization, the animal was killed by exsanguination, and the lung was isolated from the animal and was perfused with 20 ml of Tyrode's solution, then immersed in an ice-cooled Tyrode's solution. The parenchyma of the lung was cut by using McIlwain-type tissue chopper to make it into fragments of lung having 2 mm square and the fragments were washed with Tyrode's solution. 400 Milligrams of sectiles of lung were suspended in 3.6 ml of Tyrode's solution, and this suspension was preincubated at 37° C. for 5 minutes, then 4 microliters of dimethyl sulfoxide solution of the test compound, in the case of control 4 microliters of dimethyl sulfoxide alone was added to the suspension. 5 Minutes after, 0.4 ml of 100 micrograms/ml of ovalbumin solution added so as to release SRS-A for 10 minutes. The suspension was ice-cooled and filtered through gauze, the filtrate was centrifuged at 2,000 rpm for 10 minutes and the supernatant was collected. The supernatant was stored in freezed state at -80° C. until bio-assay was conducted.
Amounts of SRS-A and histamine contained in the supernatant were determined by bio-assay using ileum of guinea pig.
A piece of the ileum (2-3 cm of length) positioned from 15-25 cm from the opening portion of ileocecum was isolated from a male guinea pig (Hartley strain) (body weight: 400-600 g) which was fasted for 24 hours. The piece of ileum was hanged vertically in a Magnus tube which was filled with 10 ml of Tyrode's solution containing 10^-7 M of atropine sulfate under air stream conditions. The isotonic contraction of the piece of the ileum was measured at 0.5 g of load by using an isotonic transducer "TD-112S" (manufactured by Nihon Koden Co., Ltd.). The measurements were carried out after the reaction to histamine of the piece of ileum was kept constant. Bioassay of histamine was measured by using the value of contraction shown in 30 seconds after the addition of the supernatant. Bioassay of on SRS-A was measured by using the value of contraction shown at 2 minutes after the addition of the supernatant in the presence of 10^-6 M of pyrilamine (manufactured by Sigma Chemical Co.), and compared with the standard curve of crude SRS-A released from the fragments of the lung.

Another test has as its target T1, 5-lipoxygenase (Cavia porcellus, UniProt A0A286X958).
T1 construct: endogenous in cells; host or cells: guinea pig (Hartley strain) casein-elicited peritoneal exudate cells, intact cell suspension
T1 sequence (A0A286X958 1-674): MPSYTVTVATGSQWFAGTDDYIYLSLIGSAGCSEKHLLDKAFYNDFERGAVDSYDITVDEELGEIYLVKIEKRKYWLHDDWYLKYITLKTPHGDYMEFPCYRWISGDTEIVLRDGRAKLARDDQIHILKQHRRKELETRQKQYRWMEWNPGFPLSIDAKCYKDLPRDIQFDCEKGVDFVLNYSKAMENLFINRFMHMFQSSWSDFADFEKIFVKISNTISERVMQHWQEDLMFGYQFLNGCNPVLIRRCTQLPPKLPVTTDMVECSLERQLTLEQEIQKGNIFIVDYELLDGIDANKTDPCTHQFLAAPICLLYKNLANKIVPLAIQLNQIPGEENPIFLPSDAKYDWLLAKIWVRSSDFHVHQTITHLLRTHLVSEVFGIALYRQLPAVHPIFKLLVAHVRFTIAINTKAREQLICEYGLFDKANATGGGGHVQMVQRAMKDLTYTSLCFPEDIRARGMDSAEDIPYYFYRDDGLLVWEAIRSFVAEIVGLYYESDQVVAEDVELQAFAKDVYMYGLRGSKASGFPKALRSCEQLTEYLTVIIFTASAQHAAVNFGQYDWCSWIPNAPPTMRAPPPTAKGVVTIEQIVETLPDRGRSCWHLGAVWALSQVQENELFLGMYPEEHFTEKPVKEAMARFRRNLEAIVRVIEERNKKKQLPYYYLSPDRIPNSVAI
In words: 5-Lipoxygenase inhibitory activity (conversion of 14C-arachidonic acid to 5-HETE) in guinea pig peritoneal exudate cells. The note with it: read-out: inhibition ratio (%) of 5-lipoxygenase activity; for inhibition at 0.3 µM: concentration 3 × 10^-7 M; for inhibition at 1 µM: concentration 10^-6 M; for inhibition at 0.1 µM: concentration 10^-7 M. The procedure: 5-Lipoxygenase inhibitory activity of the present compounds was determined by a method according to procedures described in "J. Biol. Chem., Vol. 256, pages 4156-4159, (1981, Ibid. Vol. 258, pages 5754-5758 (1983).
(1) Preparation of Test Cells
A guinea pig (Hartley strain) (500-650 g body weight) was intraperitoneally administered with 2%-casein solution in 3/50 the volume of body weight. 14 Hours after the administration, the animal was sacrificed by bleeding and the peritoneal cavity was washed with Dulbecco's phosphate buffered saline (PBS) containing 3 U/ml of heparin and the exudate cells were harvested. The sample of cells was washed twice with Dulbecco's PBS (-), then the cells were suspended in Dulbecco's PBS (-), containing 1 mM of calcium chloride and 5.5 mM of glucose, so as to make a suspension having the concentration of 2.5×10^7 cells/ml.
To 0.2 ml of the above-mentioned cell suspension was added 10^-5 M of Indomethacine, and incubated at 30° C. for 2 minutes. Each of the appropriate concentrations of test compounds was added to the suspension respectively, further incubated for 2 minutes. Next, 10 μm of Ionophore A23187 (manufactured by Calbiochem-Behring, San Diego, Calif., U. S. A) was added to the suspension, further, 10 μm of ^14 C-arachidonic acid (manufactured by Amersham Japan, Ltd., Tokyo, Japan) was added and initiated the reaction. 3 Minutes after the initiation of the reaction, 0.1 ml of 0.2M-citric acid was added so as to terminate the reaction. 1.2 Milliliters of ethyl acetate was added to the reaction mixture and shaked for 5 minutes. The reaction mixture was centrifuged at 3,000 rpm for 5 minutes so as to separate the organic layer from the aqueous layer. 1 Milliliter of the organic layer (the upper layer) was dehydrated by passing through a mini-column packed with anhydrous sodium sulfate. The dehydrated organic layer was dried under nitrogen gas stream. The residue obtained was dissolved in ethyl acetate, and the total amount of the ethyl acetate solution was spotted onto thin layer chromochromatography (TCL) plate (Art. 11845 manufactured by E. Merck A. G.). The TCL was carried out with a mixed solvent of diethyl ether:petroleum:ether:acetic acid (50:50:1 volume/volume), then the radioactive metabolites on the plate were detected by using "Ultrafilm ^3 H" (a trademark for a X-ray film, manufactured by LKB Co.). Each fractions corresponding to the metabolites was scraped in to a scintillation vial, and 5 ml of "Scintilator ACS-II" (manufactured by Amersham Japan, Ltd.), was added then the radio-activity was determined by means of a liquid scintillation counter.

For test [2], the system named is SRS-A release from lung fragments. In words: Inhibition of SRS-A release from sensitized guinea pig lung fragments. The note with it: Cavia porcellus, read-out: Inhibition ratio (%) SRS-A; for inhibition at 3 µM: Table 2, dose 3 μM; for inhibition at 30 µM: Table 2, dose 30 μM. A digest of the protocol:
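Lung fragments from ovalbumin-sensitized male Hartley guinea pigs were preincubated 5 min at 37 °C in Tyrode's, given compound in DMSO for 5 min, then challenged with ovalbumin for 10 min. Released histamine was bioassayed by guinea pig ileum contraction at 30 s. SRS-A was read at 2 min with 10^-6 M pyrilamine against a crude SRS-A standard curve.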

As to `COC1=CC(=O)C(OC)=C(CCCCCCCCCCC2=C(OC)C(=O)C=C(OC)C2=O)C1=O` [Test Compound No. 14, 2,2'-Decamethylenebis(3,6-dimethoxy-1,4-benzoquinone)], in test [1], the inhibition at 3 µM is -12.6% and the inhibition at 30 µM was -23.5%. Besides, at 5-lipoxygenase, the inhibition at 0.3 µM amounted to 78%, the inhibition at 1 µM stood at 89% and the inhibition at 0.1 µM is 34%. Further, in test [2], the inhibition at 3 µM came to 4.5% and the inhibition at 30 µM worked out at 29.2%.

Take `COC1=CC(=O)C(OC)=C(CCCCCCCCCCCCC2=C(OC)C(=O)C=C(OC)C2=O)C1=O` [Test Compound No. 15, 2,2'-Dodecamethylenebis(3,6-dimethoxy-1,4-benzoquinone)]: in test [1], the inhibition at 3 µM was -10.4% and the inhibition at 30 µM is -16%. At 5-lipoxygenase, the inhibition at 0.3 µM came out at 37%, the inhibition at 1 µM amounted to 77% and the inhibition at 0.1 µM came out at 5%. Also, in test [2], the inhibition at 3 µM was 3.4% and the inhibition at 30 µM is 3.8%.

As for `COC1=CC(=O)C(OC)=C(CCCCCC2=C(OC)C(=O)C(C)=C(OC)C2=O)C1=O` [Test Compound No. 18, 2,5-Dimethoxy-3-methyl-6-[5-(2,5-dimethoxy-1,4-benzoquinon-3-yl)pentyl]-1,4-benzoquinone], in test [1], the inhibition at 3 µM is 14.4% and the inhibition at 30 µM was determined as 8.3%. At 5-lipoxygenase, the inhibition at 0.3 µM stood at 33%, the inhibition at 1 µM turned out to be 53% and the inhibition at 0.1 µM was 17%. For the same compound, in test [2], the inhibition at 3 µM was 62.9% and the inhibition at 30 µM was 91.9%.

Values taken from patent US5220042A, “1,4-benzoquinone derivatives and benzene derivatives, and process for preparing the same” (priority 1984, dated 1993).
